Converted amounts (≈) assume the structure as drawn. Where two headings read alike, the source gives them in different places.

Holding throughout (assay type): cell-based
One assay has as its system IMR32. Put plainly: Antiproliferative SRB assay, IMR32. Particulars: Homo sapiens, IMR-32, 72 h, Neuroblastoma, mean ± SEM. From the text: (§1) Topoisomerase inhibitors such as DOX are used as single agent and in combination therapy to treat a wide-range of cancer types.
(In general: In SRB staining, fixed cells bind dye roughly in proportion to their protein.)

Assay [1] relates to MDA-MB-231 triple negative breast cancer cells. Put plainly: Antiproliferative SRB assay, MDA-MB-231. Particulars: SRB assay; for IC50: Homo sapiens, MDA-MB-231, 72 h, mean ± SEM. The procedure: FIG. 1. […] Cell death measured by SRB assay after 72 hour of compound exposure (n≥3 biological replicates, error bars show SEM). IC50 values given as mean±SEM from ≥3 biological replicates.
To investigate the feasibility of developing a class of antitumor antibiotics based upon the DNM scaffold, the ability of the DNM to exert an antiproliferative effect against MDA-MB-231 breast cancer cells was evaluated.

The test system of the next assay is E. coli. Put plainly: Antibacterial MIC, microbroth dilution, E. coli. Particulars: Escherichia coli. Here is the method: (§2) To investigate this possibility, the antibacterial effects of the DNM derivatives was assessed against strains of E. coli, S. aureus, and MRSA using the microbroth dilution method (Table 2).
The test system of another assay is H460. Put plainly: Antiproliferative SRB assay, H460. As to conditions: Homo sapiens, NCI-H460, 72 h, Lung cancer, mean ± SEM.
Source text: as §1

For the next assay, the system named is HOS. Put plainly: Antiproliferative SRB assay, HOS. Particulars: Homo sapiens, 72 h, Osteosarcoma, mean ± SEM.
Source text: as §1

Another assay has as its system panel of cancer cells. Put plainly: Average over panel of 10 cancer cell lines. As to conditions: 72 hour, read-out: Average (mean) IC50 over the cell line panel.
Source text: as §1

The subject of the next assay is BT-474. Put plainly: Antiproliferative SRB assay, BT-474.
Source text: as §1

In another assay the test system is S. aureus. Put plainly: Antibacterial MIC, microbroth dilution, S. aureus. Particulars: Staphylococcus aureus. Here is the method: as §2
(Broth dilution looks for growth in wells or tubes with falling amounts of substance.)

The test system of a further assay is ES-2. Put plainly: Antiproliferative SRB assay, ES-2. As to conditions: Homo sapiens, ES-2, 72 h, Cervical cancer (footnote f), mean ± SEM.
Source text: as §1

For a further assay, the system named is HeLa. In words: Antiproliferative SRB assay, HeLa. Particulars: Homo sapiens, 72 h, Ovarian cancer (footnote e), mean ± SEM.
Source text: as §1

The test system of another assay is HL-60. In words: Cell viability Alamar Blue assay, HL-60. Particulars: Homo sapiens, HL-60, 72 h, Leukemia, mean ± SEM.
Source text: as §1
In general terms: The colour change of resazurin is a common sign of viable cells or microbes.

The next assay concerns Jurkat. Put plainly: Cell viability Alamar Blue assay, Jurkat. Particulars: Homo sapiens, 72 h, Leukemia, mean ± SEM.
Source text: as §1

The next assay has as its system HCT-116. In words: Antiproliferative SRB assay, HCT-116. As to conditions: Homo sapiens, HCT-116, 72 h, Colon cancer, mean ± SEM.
Source text: as §1

The target of assay [2] is T1, Top1 (Homo sapiens, UniProt P11387).
T1 sequence (P11387 1-765): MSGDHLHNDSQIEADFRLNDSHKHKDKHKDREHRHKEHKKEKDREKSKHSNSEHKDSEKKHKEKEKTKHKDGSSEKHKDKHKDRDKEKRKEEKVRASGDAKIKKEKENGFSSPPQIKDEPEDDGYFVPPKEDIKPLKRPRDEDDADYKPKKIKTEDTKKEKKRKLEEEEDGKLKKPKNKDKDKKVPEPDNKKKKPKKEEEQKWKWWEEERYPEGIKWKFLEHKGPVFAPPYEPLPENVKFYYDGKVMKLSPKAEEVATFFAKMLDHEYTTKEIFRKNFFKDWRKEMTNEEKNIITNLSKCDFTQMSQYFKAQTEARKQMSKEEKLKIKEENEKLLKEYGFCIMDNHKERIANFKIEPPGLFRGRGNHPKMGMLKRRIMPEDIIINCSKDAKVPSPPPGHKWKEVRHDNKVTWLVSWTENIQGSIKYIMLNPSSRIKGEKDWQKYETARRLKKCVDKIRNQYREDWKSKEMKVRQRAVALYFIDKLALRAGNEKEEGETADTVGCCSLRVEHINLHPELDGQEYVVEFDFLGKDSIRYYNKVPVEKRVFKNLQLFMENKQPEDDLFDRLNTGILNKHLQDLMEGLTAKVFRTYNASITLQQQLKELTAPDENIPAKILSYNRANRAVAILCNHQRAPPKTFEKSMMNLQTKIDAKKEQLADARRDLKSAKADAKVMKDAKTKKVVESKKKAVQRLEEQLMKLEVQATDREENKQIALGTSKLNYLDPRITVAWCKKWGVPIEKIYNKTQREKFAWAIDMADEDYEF
In words: Top1 degradation by Western blot, BT-474. As to conditions: 50 μM for 2, 4, and 6 hours, then 30-minute drug-free media. The procedure:
(§3) FIG. 4. Level of Top1-degradation predicts cell line sensitivity. (a) Cells treated with 25 μM of compound for indicated times followed by a 30 minute incubation with drug-free media. Cells were lysed with RIPA and Top1 levels assessed by Western Blot. (b) Degradation of Top1 results in a right-ward shift in the dose-response curve. Effect is most pronounced in Top1-poisons (Ph-6DNM-NH3, CPT) than Top1 catalytic inhibitor (6DNM-Pyr). Cell death measured by SRB assay after 72 hour of compound exposure (n≥3 biological replicates, error bars show SEM).
(§4) This difference in mechanism of action between Ph-6DNM-NH3 and 6DNM-Pyr may provide an explanation of the differences in cell line sensitivities between the different DNM derivatives. […] This downregulation serves as a resistance mechanism and the level of Top1 degradation is correlated with reduced sensitivity to CPT. To determine if a similar mechanism is responsible for the reduced sensitivity to Ph-6DNM-NH3 and its derivatives in certain cell lines, the effects of Ph-6DNM-NH3 and 6DNM-Pyr were compared to that of CPT in […] and BT-474, two cancer cell lines known to be deficient and proficient in Top1 degradation, respectively. Cells were treated with 50 μM Ph-6DNM-NH3, 6DNM-Pyr, or CPT for 2, 4, and 6 hours. Following a 30-minute incubation with drug-free media to allow for the reversal of any Top1cc formed, cells were lysed and Top1 concentrations assessed by Western blot (FIG. 4a).

The target in assay [3] is T1, Top1. In words: Top1 degradation by Western blot, MDA-MB-231. On the set-up: dose or concentration left out as unconfirmed. Particulars: 4, and 6 hours, then 30-minute drug-free media. Here is the method:
as §3, §4

As to `Cc1cc(=O)n(C)c2c3c4c(cc12)c(C)cc(=O)n4C(CN1CCCCC1)CO3` (stereo not drawn) [Compound 21], the IC50 is 6 ± 1.6 nM in the assay with IMR32; 17 ± 1 nM in assay [1] (Breast cancer, read-out: 72 hour IC50, MDA-MB-231); 17 ± 1 nM in assay [1] (72 hour compound exposure, read-out: MDA-MB-231 IC50); 11 ± 2 nM in the assay on H460; 21 ± 3 nM in the assay on HOS; 31 nM with panel of cancer cells. The half-inhibitory concentration (IC50) with BT-474 (Homo sapiens, BT-474, 72 h, Breast cancer, mean ± SEM) worked out at 90 ± 10 nM; in the assay with ES-2, 22 ± 6 nM; in the assay on HeLa, 46 ± 2 nM; with HL-60, 55 ± 11 nM; in the assay on Jurkat it was 33 ± 4 nM; in the assay on HCT-116, 8 ± 1 nM. Also, the MIC came out at 4 µg/mL (≈ 10.2 µM) against E. coli and 0.5 µg/mL (≈ 1.27 µM) in the assay on S. aureus.
With `CC[C@@]1(O)C(=O)OCc2c1cc1n(c2=O)Cc2cc3ccccc3nc2-1` [CPT, camptothecin, reference compound], the “Antiproliferative effect against MDA-MB-231 cells” value in [1] (FIG. 1, 72 hour) is recorded as “sensitive”. Also, the “Effectiveness in BT-474 after Top1 degradation” value with BT-474 (FIG. 4b, 72 hour) is “nearly complete resistance”. Moreover, the “Top1 levels by Western blot in BT-474” value at Top1 [2] was “time-dependent decrease in the levels of Top1”. Moreover, on Top1 [3], the “Top1 levels by Western blot in MDA-MB-231” value is listed as “minimal differences in Top1 relative to untreated cells”.

As a reminder, the IC50 is the point on the concentration scale where inhibition reaches its midpoint. In general, MIC refers to the least concentration at which growth counts as inhibited.
